Source: patent publication US20130171252A1, “Formulation Comprising a Type B Lantibiotic” (NOVACTA […], priority 2010, published 2013)
In brackets after ≈: the same amount, converted by molar mass. Where two headings read alike, the source gives them in different places.

Columns and labels:
C. diff strain 027Can = experiment: MIC, agar dilution susceptibility testing, C. diff strain 027Can; assay type: cell-based, Clostridium difficile; conditions: Wilkins-Chalgren Anaerobe agar, anaerobic, 37° C., 48 hours, repeat determinations
Experimental: (§1) Susceptibility testing for Clostridium difficile strains was performed by two-fold serial antibiotic dilutions in Wilkins-Chalgren Anaerobe agar under anaerobic conditions. Vancomycin was included as a comparator drug. C. difficile cultures were inoculated onto pre-reduced Braziers (C.C.E.Y.) agar plates and grown at 37° C. for 48 hours under anaerobic conditions. Two to three colonies of the 48 hours cultures were inoculated into 5 ml of pre-reduced Schaedlers Broth and grown at 37° C. for 24 hours under anaerobic conditions. This culture was diluted with pre-reduced 0.9% NaCl to achieve the turbidity of the 0.5 McFarland standard and applied to the drug containing plates at a final inoculum of 10^5 cfu/spot. Drug-free growth control plates were included. The plates were incubated in the anaerobic chamber at 37° C. for 48 hours and examined for growth.

C. diff strain E16 = experiment: MIC, agar dilution susceptibility testing, C. diff strain E16; assay type: cell-based, Clostridium difficile; conditions: Wilkins-Chalgren Anaerobe agar, anaerobic, 37° C., 48 hours
Experimental: as §1

C. diff strain 19126 = experiment: MIC, agar dilution susceptibility testing, C. diff strain 19126; assay type: cell-based, Clostridium difficile; conditions: Wilkins-Chalgren Anaerobe agar, anaerobic, 37° C., 48 hours, repeat determinations
Experimental: as §1

C. diff strain P24 = experiment: MIC, agar dilution susceptibility testing, C. diff strain P24; assay type: cell-based, Clostridium difficile; conditions: Wilkins-Chalgren Anaerobe agar, anaerobic, 37° C., 48 hours
Experimental: as §1

C. diff strain P49 = experiment: MIC, agar dilution susceptibility testing, C. diff strain P49; assay type: cell-based, Clostridium difficile; conditions: Wilkins-Chalgren Anaerobe agar, anaerobic, 37° C., 48 hours
Experimental: as §1

C. diff strain B32 = experiment: MIC, agar dilution susceptibility testing, C. diff strain B32; assay type: cell-based, Clostridium difficile; conditions: Wilkins-Chalgren Anaerobe agar, anaerobic, 37° C., 48 hours
Experimental: as §1

C. diff strain P62 = experiment: MIC, agar dilution susceptibility testing, C. diff strain P62; assay type: cell-based, Clostridium difficile; conditions: Wilkins-Chalgren Anaerobe agar, anaerobic, 37° C., 48 hours
Experimental: as §1

C. diff strain 630 = experiment: MIC, agar dilution susceptibility testing, C. diff strain 630; assay type: cell-based, Clostridium difficile; conditions: Wilkins-Chalgren Anaerobe agar, anaerobic, 37° C., 48 hours, repeat determinations
Experimental: as §1

C. diff strain 37779 = experiment: MIC, agar dilution susceptibility testing, C. diff strain 37779; assay type: cell-based, Clostridium difficile; conditions: Wilkins-Chalgren Anaerobe agar, anaerobic, 37° C., 48 hours, repeat determinations
Experimental: as §1

C. diff strain E4 = experiment: MIC, agar dilution susceptibility testing, C. diff strain E4; assay type: cell-based, Clostridium difficile; conditions: Wilkins-Chalgren Anaerobe agar, anaerobic, 37° C., 48 hours
Experimental: as §1

C. diff strain P59 = experiment: MIC, agar dilution susceptibility testing, C. diff strain P59; assay type: cell-based, Clostridium difficile; conditions: Wilkins-Chalgren Anaerobe agar, anaerobic, 37° C., 48 hours
Experimental: as §1

C. diff strain E101 = experiment: MIC, agar dilution susceptibility testing, C. diff strain E101; assay type: cell-based, Clostridium difficile; conditions: Wilkins-Chalgren Anaerobe agar, anaerobic, 37° C., 48 hours
Experimental: as §1

C. diff strain 027SM = experiment: MIC, agar dilution susceptibility testing, C. diff strain 027SM; assay type: cell-based, Clostridium difficile; conditions: Wilkins-Chalgren Anaerobe agar, anaerobic, 37° C., 48 hours
Experimental: as §1

[1] = Example 2: solubility and dissolution behaviour from hard gelatin capsule in SGF; assay type: physicochemical; conditions: 50 mg in size 00 hard gelatin capsule, 10 mL SGF, 37° C.
Experimental: The solubility and dissolution behaviour of compound 1 contained in a hard gelatin capsule when suspended in simulated gastric fluid (SGF) has been monitored at 37° C.
Compound 1 (50 mg) was transferred into a size 00 hard gelatin capsule. This capsule represents the lowest dose that is likely to be administered in clinical trials. The capsule was dropped into 10 mL of SGF at 37° C. and the sample was intermittently swirled by hand. Dissolution was monitored visually and by HPLC over a one hour period. For the dissolution experiment monitored by HPLC, the sample was stirred continuously with a magnetic stirrer at 37° C. 100 ul samples were withdrawn from the dissolution experiment and were diluted with 900 ul water. The diluted sample was then centrifuged to remove solid material (mostly gelatin).

[2] = Susceptibility to enzymatic digestion in simulated intestinal fluid (FIG. 1); assay type: in vitro ADME; conditions: 37° C., HPLC (FIG. 1)
Experimental: Nisin and the compound of compound 1 were tested for their susceptibility towards enzymatic digestion in the intestine using a simulated intestinal fluid (SIF). The SIF was based on the standard USP solutions for simulated intestinal fluids and its activity was confirmed against Bovine Serum Albumin (Hilger et al, Clin. Exp. Immunol. 2001, 123, 387-94). The compounds were incubated in SIF at 37° C. and their concentrations quantified by analytical HPLC (UV detection at 210 nm using the conditions outlined in Table 1).

[3] = Dissolution testing of the capsule of Example 1 in simulated gastric fluid; assay type: physicochemical; conditions: hard gelatine capsule size 00, 50 mg compound 1, 10 mL SGF, 37° C., stirred
Experimental: A hard gelatine capsule (size 00) was opened into two segments and compound 1 (50 mg) was weighed into the larger segment. The capsule segment containing compound 1 was sealed by inserting and closing the smaller segment over the larger capsule section. A hard gelatine capsule (size 00) containing up to 500 mg can be prepared employing this method.
The capsule of Example 1 was dropped into a 10 mL of simulated gastric fluid (SGF) at 37° C. […] Samples of the solution/suspension (100 μL) were withdrawn at 1, 2, 3, 4, 5, 6, 7, 8, 9, 10, 15, 20, 25, 30 and 70 minutes after the addition of the capsule to SGF.
The samples were clarified using a bench top centrifuge to remove solid from the suspension. The clarified supernatants were diluted with 50% ethanol and then were analysed by HPLC.

[4] = Example 3: solubility in SIF and SGF; assay type: physicochemical; conditions: target 40 mg/ml
Experimental: 10 mg of compound 1 was suspended in […] Simulated Intestinal Fluid (SIF), and was left on a shaker for 10 minutes, after which time suspension was observed. This was in contrast to an identical sample suspended in SGF which dissolved fully after the same period of time. This sample prepared at a target concentration of 40 mg/ml was centrifuged to remove sediment. The supernatant was then diluted to a target of 1 mg/ml with water and compound 1 content was compared against a 1 mg/mL standard prepared in 50% ethanol (aq) using a HPLC method of Example 2.

[5] = Example 4: stability in SIF over 240 minutes (FIG. 4); assay type: in vitro ADME; conditions: 37° C., HPLC
Experimental: Compound 1 was incubated in SIF at 37° C. for up to 240 minutes. Aliquots were withdrawn from the test sample and diluted with water prior to analysis by HPLC (as described in Example 2). The compound 1 peak area was recorded and was expressed as a percentage with respect to the time zero sample.

With “Deoxyactagardine B (1,9-diaminononane) monocarboxamide [Compound 7]” the MIC (C. diff strain 027Can; listed as Comp 7) was 0.5 µg/mL.
With deoxyactagardine B [DAB] the MIC (C. diff strain 027Can) was 4 µg/mL, the MIC (C. diff strain E16) was 2 µg/mL and the MIC (C. diff strain 19126) was 4 µg/mL. For the same molecule, the MIC (C. diff strain P24) was 2 µg/mL, the MIC (C. diff strain P49) was 2 µg/mL and the MIC (C. diff strain B32) was 2 µg/mL. For the same molecule, the MIC (C. diff strain P62) was 2 µg/mL, the MIC (C. diff strain 630) was 4 µg/mL and the MIC (C. diff strain 37779) was 4 µg/mL. For the same molecule, the MIC (C. diff strain E4) was 2 µg/mL, the MIC (C. diff strain P59) was 2 µg/mL and the MIC (C. diff strain E101) was 2 µg/mL. It also gave an MIC (C. diff strain 027SM) of 2 µg/mL.
With `CCC(C)[C@@H]1NC(=O)C2NC(=O)[C@H](CC(C)C)NC(=O)[C@H](NC(=O)[C@H]3CSC[C@H](N)C(=O)N[C@@H](CO)C(=O)NCC(=O)N[C@@H](Cc4c[nH]c5ccccc45)C(=O)N[C@@H](C(C)C)C(=O)N3)[C@H](C)SC[C@H](NC(=O)[C@H](CCC(=O)O)NC1=O)C(=O)NCC(=O)N[C@@H]1C(=O)N[C@@H](CC(C)C)C(=O)N[C@@H](C(C)C)C(=O)N[C@@H](CS[C@H]2C)C(=O)N[C@@H](C)C(=O)N[C@H](C(=O)NCCCCCCCN)CS[C@H]1C` (stereo partly shown) [Compound 1, Deoxyactagardine B (1,7-diaminoheptane) monocarboxamide] the “dissolution time in SGF” value [1] was ≤ 3 min, the “time in which the bulk dissolves in SGF” value [1] was “less than 5 minutes” and the “time to reach saturation dissolution in SGF” value ([1]; HPLC (FIG. 3)) was 3 min. For the same molecule, the “stability in SIF” value [2] was “essentially stable”, the “time to complete release from the capsule into SGF” value [3] was ≤ 4 min and the solubility at 10 min ([4]; SGF, 10 minutes on shaker, read-out: solubility in SGF) was 40 mg/mL (≈ 20.1 mM). For the same molecule, the solubility at 10 min ([4]; Simulated Intestinal Fluid (SIF), Simulated Intestinal Fluid pH 6.8, 10 minutes on shaker, supernatant by HPLC, read-out: solubility in SIF) was < 0.8 mg/mL and the “peak area as percentage with respect to the time zero sample” value [5] was “no significant reduction”.
